In US9266829B2, “Quinone compounds and their uses for the treatment of cancer” (Onco-NX Limited, priority 2012, dated 2016):
≈ marks a conversion by molar mass, not a printed value. Entries after “also recorded” stand apart in the source; their conditions may differ.

How the values were obtained:
[1] = system: MDA NQ01 cell extract; test: Cell lysate esterase reaction, MDA NQ01 cell extract; assay type: in vitro ADME, human
From the text: (§1) The cleavage of Es5 by esterase and cell extracts and its activation were investigated.
(§2) The degradation of Es5 by esterases from cell lysate of the two cell lines MDA NQ01 and MDA468 was investigated.

[2] = system: esterases; test: as above; assay type: in vitro ADME, human; settings: human, MDA NQ01 cell line extract (cell lysate)
From the text: as §1, §2

[3] = physchem
[4] = system: MDA-MB-468-MOCK; test: In vivo hollow fibre assay, MDA-MB-468-MOCK; settings: fibres at i.p. site; i.p. dosing days 3-6; nude mice; p<0.01
Protocol: (§3) The activity of Es5 (4.65) was evaluated in vivo against 3 cancer cell lines H460, MDA-MB-468-NQ01 and MDA-MB-468-MOCK using the in vivo hollow fibre assay (HFA), with fibres implanted at both intraperitoneal (i.p.) and subcutaneous (s.c.) sites. Es5 and the control agent Doxorubicin were administered as multiple doses by intraperitoneal injection (i.p.) on days 3, 4, 5 & 6 at 0.5 mg/kg/day and 2.5 mg/kg/day respectively.
(§4) Three human tumour cell lines were selected for analysis: H460 NSCLC (from ICT) and two breast carcinoma lines MDA-MB-468-NQ01 and MDA-MB-468-MOCK (both supplied by Onco-NX). Cells were cultured in RPMI 1640 cell culture medium supplemented with 1 mM sodium pyruvate, 2 mM L-glutamine and 10% foetal bovine serum (all from Sigma), and maintained as monolayer cultures at 37° C. in a humidified 5% CO2 environment.
Female Balb/C immunodeficient nude mice aged 6-8 weeks were used (Harlan UK, Blackthorn, UK). Mice were kept in cages housed in isolation cabinets in an air-conditioned room with regular alternating cycles of light and darkness. They received Teklad 2018 diet (Harlan, Blackthorn, UK) and water ad libitum. […]
(§5) Mice were sacrificed on day 7 post-implantation, fibres removed, and cell survival analysed using a modified MTT assay, comparing absorbances seen for the treated groups with the corresponding untreated control group. […]

[5] = system: MDA468 cells; test: Combination index at IC50 with other anti-cancer agents in MDA468 cells; assay type: cell-based, human
[6] = system: MDA-MB-468-NQ01; test: In vivo hollow fibre assay, MDA-MB-468-NQ01; parameters: species or system mice
Protocol: as §3, §4
(§6) Female Balb/C immunodeficient nude mice aged 6-8 weeks were used (Harlan UK, Blackthorn, UK). Mice were kept in cages housed in isolation cabinets in an air-conditioned room with regular alternating cycles of light and darkness. They received Teklad 2018 diet (Harlan, Blackthorn, UK) and water ad libitum. All animal procedures were carried out under a project licence issued by the UK Home Office and UKCCCR guidelines were followed throughout.
Cells were loaded into sterilised colour-coded PVDF Spectra/Por hollow fibres (HF) (Spectrum Medical Inc, Houston, Tex., USA). Briefly cells were harvested and resuspended in cell culture medium at the required cell density. This preparation was then loaded into the HF and the ends were clamped and heat-sealed. The HF was then cut into 1.5 cm lengths which were again heat-sealed at both ends, and then transferred to 6-well plates containing medium before implantation for the in vivo experiments, or were incubated at 37° C. in a humidified 5% CO2 environment for varying times before processing using the modified MTT assay as described below.
For the in vivo experiments, under brief inhalation anaesthesia (2% isoflurane), one loaded hollow fibre for each of the cell lines was transplanted intraperitoneally or subcutaneously on the dorsal flank of each mouse and the mice were allowed to recover. Each group consisted of 6 mice and the implantation day was termed ‘day 0’.
For assessment of the therapeutic response of Es5 (4.65), on days 3, 4, 5 & 6 mice were treated with Es5 (4.65) at 0.5 mg/kg/day or Doxorubicin at 2.5 mg/kg/day.
Mice were sacrificed on day 7 post-implantation, fibres removed, and cell survival analysed using a modified MTT assay, comparing absorbances seen for the treated groups with the corresponding untreated control group. Statistical analysis was carried out using a Student's t-test.

[7] = system: porcine brain extracts; test: Cleavage by porcine brain extracts; assay type: in vitro ADME; settings: in words; result of porcine esterase repeated
From the text: as §1

[8] = physchem; remark: listed apart in the source
[9] = system: NQ01 cells; test: Combination index at IC50 with other anti-cancer agents in NQ01 cells; assay type: cell-based, human
[10] = system: MDA468 cell extract; test: Cell lysate esterase reaction, MDA468 cell extract; assay type: in vitro ADME, human
From the text: as §1, §2

[11] = system: esterases; test: Cell lysate esterase reaction, MDA468 cell extract; assay type: in vitro ADME, human; settings: human, MDA468 cell extract (cell lysate)
From the text: as §1, §2

[12] = system: MDA468NQ01; test: DNA damage, Comet assay, MDA468NQ01 cells; assay type: cell-based, human; settings: 10 nM for 2 hrs, compared to H2O2 alone
Protocol: (§7) DNA damage was measured using the Comet assay to investigate the effect of Es5 on the comet head and tail intensities following treatment of MDA468NQ01 and the DT-diaphorase null MDA468 cell lines. […] Without wishing to be bound by any particular theory, the inventors believe that this must arise by a different mechanism such as 2×one electron reductions, rather than the 2 electron reduction that occurs with DT-diaphorase.

[13] = system: serum esterase; test: Degradation by serum esterase (hydrolysis in serum); assay type: in vitro ADME
From the text: as §1

[14] = physchem; assay type: physicochemical; settings: buffer, pH 7
[15] = system: MDA468; test: IC50 by MTT assay on MDA468 cells; assay type: cell-based, human
[16] = system: esterase; test: Degradation by porcine liver esterase; assay type: in vitro ADME; settings: pig, porcine liver esterase
From the text: as §1

[17] = system: porcine liver esterase; test: Degradation by porcine liver esterase; assay type: in vitro ADME; settings: in words
From the text: as §1

[18] = system: DT-diaphorase null MDA468; test: DNA damage, Comet assay, DT-diaphorase null MDA468 cells; assay type: cell-based, human
Protocol: as §7

[19] = system: MDA NQ01; test: IC50 by MTT assay on NQ01 cells; assay type: cell-based, human
[20] = system: H460 NSCLC; test: In vivo hollow fibre assay, H460; settings: i.p. dosing days 3-6, nude mice
Protocol: as §3, §4, §6
Cells were loaded into sterilised colour-coded PVDF Spectra/Por hollow fibres (HF) (Spectrum Medical Inc, Houston, Tex., USA). Briefly cells were harvested and resuspended in cell culture medium at the required cell density. This preparation was then loaded into the HF and the ends were clamped and heat-sealed. […]
as §5

## CC(=O)OCCCC1=C(N2CC2)C(=O)C(C)=C(N2CC2)C1=O [Es5, Acetic Acid 3-(2,5-bis-aziridin-1-yl-4-methyl-3,6-dioxo-cyclohexa-1,4-dienyl)-propyl ester]
[1]; human, MDA NQ01 cell line extract (cell lysate)
  Degradation by MDA NQ01 cell extract, rate: (11.25 nmoles/hr/10^6 nmoles/hr/10^6 cells
[1]; in words
  cleavage of the ester by MDA468 NQ01 cell extract: rapidly cleaved
[2]; Degradation by MDA NQ01 cell extract, t1/2
  half-life: 2.67 h
[2]; room temperature, degraded to the alcohol 4.61, read-out: half-life in MDA NQ01 cell line extract
  half-life: ~2.67 h
[3]; aqueous buffer
  solubility: 150 µg/mL (≈ 0.493 mM)
[3]; organic solvent or mixture
  solubility: 9400 µg/mL (≈ 30.9 mM)
[4]
  cell survival compared to the untreated control, MDA-MB-468-MOCK, i.p. site: significant efficacy
[5]; with ARC-C
  Combination index at IC50 with ARC-C in MDA468 cells: 1.2 (slight
[5]
  Combination index at IC50 with Cis-platinum in MDA468: synergy
  Combination index at IC50 with Docetaxel in MDA468 cells: moderately inhibitory effect
  Combination Index at IC50 with Mitomycin C in MDA468 cells: slight antagonism
  Combination index at IC50 with cobalt chloride in MDA468 cells: strong synergy
[5]; listed as Es5 (4.65)
  Combination index at IC50 with Cis-platinum in MDA468: 0.567 (synergy)
  Combination index at IC50 with Docetaxel in MDA468 cells: 1.387 (moderately
  Combination Index at IC50 with Mitomycin C in MDA468 cells: 1.4 (slight
  Combination index at IC50 with cobalt chloride in MDA468 cells: 0.464 (strong
[5]; with Epirubicin
  Combination index at IC50 with Epirubicin in MDA468 cells: 1.49 (antagonism)
[6]; fibres at i.p. site, i.p. dosing days 3-6, nude mice, p<0.01
  cell survival compared to the untreated control, MDA-MB-468-NQ01, i.p. site: significant efficacy
[6]; hollow fibre assay
  efficacy in the NQ01-expressing compared to the Mock MDA-MB-468 cell line: improved efficacy
[7]
  cleavage by porcine brain extracts: rapidly cleaved
[8]
  half-life: < 24 h
[9]; with ARA-C
  Combination index at IC50 with ARA-C in NQ01 cells: 1.22 (slight
[9]
  Combination index at IC50 with Cis-platinum in MDA NQ01: synergy
  Combination index at IC50 with Docetaxel in NQ01 cells: additive effect
  Combination Index at IC50 with Mitomycin C in NQ01 cells: additive effect
  Combination index at IC50 with cobalt chloride in NQ01 cells: strong synergy
[9]; listed as Es5 (4.65)
  Combination index at IC50 with Cis-platinum in MDA NQ01: 0.674 (synergy)
  Combination index at IC50 with Docetaxel in NQ01 cells: 0.964 (additive)
  Combination Index at IC50 with Mitomycin C in NQ01 cells: 0.924 (additive)
  Combination index at IC50 with cobalt chloride in NQ01 cells: 0.54
[9]; with Epirubicin
  Combination index at IC50 with Epirubicin in NQ01 cells: 2.04 (antagonism)
[10]; human, MDA468 cell extract (cell lysate)
  Degradation by MDA468 cell extract, rate: (19.6 nmoles/hr/10^6 nmoles/hr/10^6 cells
[10]; in words, compared with MDA468 NQ01 extract
  cleavage of the ester by MDA 468 cell extract: much reduced rate; also recorded: appreciably lower rate
[11]
  half-life: 4.67 h
[12]
  Comet assay head and tail intensities (DNA cross-linking): increased the proportion of DNA in the head
[13]; T90 = time taken to degrade to 90% of starting concentration
  Degradation by serum esterase, t90: t90 90 mins
[13]; serum, read-out: hydrolysis in serum, t1/2
  half-life: 1.67 h
[14]
  half-life at 50 μM: > 24 h
[15]; Homo sapiens
  IC50: 25 nM
[15]; listed as Es5 (4.65)
  IC50: 20 to 25 nM
[16]
  half-life: 1 min
[17]
  cleavage by porcine esterase to hydrolysis product: rapidly cleaved
[18]; DT-diaphorase deficient cell line, compared to H2O2 alone
  Comet assay tail intensity (DNA cross-linking): did not reduce tail intensity
[18]; DT-diaphorase null cell line, 6 hours
  Comet assay, DNA cross-linking after 6 hours of incubation: evidence of cross-linking
[19]; Homo sapiens, MTT assay
  IC50: 0.23 nM
[19]; IC50 values, MTT assay
  selectivity towards cells that express DT-diaphorase: excellent selectivity
[19]; ratio of IC50 values
  MDA468 to NQ01 differential: > 80 fold
[20]; fibres at i.p. site, p<0.01
  cell survival compared to the untreated control, H460, i.p. site: significant efficacy
[20]; fibres at s.c. site
  cell survival compared to the untreated control, H460, s.c. site: significant efficacy
